From patent US7186824B2, “Reduction inhibitory agent for active-oxygen eliminating activity” (Kabushiki Kaisha Hayashibara Seibutsu Kagaku Kenkyujo, priority 1997, dated 2007)

How the values were obtained:
Type in all cases: biochemical
[1] = Active-oxygen eliminating activity of superoxide dismutase and antioxidants in water or trehalose solution before/after storage (NBT test); conditions: for Activity (unit/mg antioxidant) Before storage: in trehalose solution, trehalose concentration 45%; for Activity (unit/mg antioxidant) After storage: light-shielded
Method: (§1) Fresh raw carrots were disrupted by a mixer, and 10% of either of saccharides, d.s.b., was added to the mixture and dissolved therein. The solution was dried under reduced pressures at 40° C. for two days, dried in vacuo at the same temperature for 24 hours, and pulverized by a mixer into a powdery carrot composition. The saccharides used were commercialized reagents of glucose, mannitol, sorbitol, maltose, sucrose, trehalose, and pullulan. An about 100 g of the composition was placed and sealed in a 500-ml polystyrene container, and stored at 40° C. for seven days. The active-oxygen eliminating activity of the composition before and after the storage were compared. The assay for the active-oxygen eliminating activity followed the nitroblue tetrazolium test by Toshio IMANARI et at in Igakuno Ayumi, Vol. 101, pp. 496–497 (1977); the level of superoxide, formed in a xanthine-xanthine oxidase system, was assayed by quantifying calorimetrically the content of formazan formed by reducing NBT. As a control, refined water was used as a test solution. One unit activity of active-oxygen eliminating activity is defined as that inhibits 50% formazan formation as compared with the control. […] The reduction inhibitory activity of trehalose was strongly higher than that of glucose as the constituent saccharide for trehalose, and that of maltose as a disaccharide consisting of two glucose units similar to trehalose. Thus trehalose is suitably used as an effective ingredient for a reduction inhibitory agent for active-oxygen eliminating activity.
In one milliliter of a 45 w/v % trehalose solution was dissolved five micrograms of superoxide dismutase from a horseradish-commercialized by Sigma Chemical Co., St. Louise, USA, 10 mg α-glucosyl hesperidin commercialized by Hayashibara Biochemical Laboratories, Inc., Okayama, Japan, 10 mg α-glucosyl rutin commercialized by Hayashibara Biochemical Laboratories, Inc., Okayama, Japan, 250 μg gallic acid commercialized by Wako Pure Chemical Industries, Ltd., Tokyo, Japan, or 50 μg catechin to obtain a liquid composition. Each of the compositions was placed in a glass test tube, sealed with a rubber cap, and stored under light-shielded conditions. As a control, water was used in place of the trehalose solution. […] Mere mixing of a powdery crystalline trehalose hydrate and either of the powdery antioxidants into a powdery mixture, almost no change of the active-oxygen eliminating activity was observed when subjected to storage test similarly as above.

[2] = Influence of saccharides on active-oxygen eliminating activity of powdery carrot composition before/after storage (NBT test); conditions: compared among the saccharides tested, 40° C. seven days
Method: Fresh raw carrots were disrupted by a mixer, and 10% of either of saccharides, d.s.b., was added to the mixture and dissolved therein. The solution was dried under reduced pressures at 40° C. for two days, dried in vacuo at the same temperature for 24 hours, and pulverized by a mixer into a powdery carrot composition. The saccharides used were commercialized reagents of glucose, mannitol, sorbitol, maltose, sucrose, trehalose, and pullulan. An about 100 g of the composition was placed and sealed in a 500-ml polystyrene container, and stored at 40° C. for seven days. The active-oxygen eliminating activity of the composition before and after the storage were compared. The assay for the active-oxygen eliminating activity followed the nitroblue tetrazolium test by Toshio IMANARI et at in Igakuno Ayumi, Vol. 101, pp. 496–497 (1977); the level of superoxide, formed in a xanthine-xanthine oxidase system, was assayed by quantifying calorimetrically the content of formazan formed by reducing NBT. As a control, refined water was used as a test solution. One unit activity of active-oxygen eliminating activity is defined as that inhibits 50% formazan formation as compared with the control. […]

[3] = Influence of trehalose concentration on active-oxygen eliminating activity of powdery carrot composition before/after storage (NBT test); conditions: for Activity (unit/g) After storage / Percentage of residual activity (%): 40° C. for seven days; for Activity (unit/g) Before storage: powdery carrot composition
Method: as §1
Similarly as in Experiment 1, 0–20% of trehalose, d.s.b., was mixed with and dissolved in a disrupted carrot. The resulting each mixture was dried in vacuo at 40° C. for 24 hours, and pulverized into a powdery carrot composition. Similarly as in Experiment 1, each powdery composition was placed and sealed in a polystyrene container, and stored at 40° C. for seven days for evaluating the reduction inhibitory activity for active-oxygen eliminating activity. […] Based on the data from Table 2, at least of about one percent, preferably, at least of about five percent, and more preferably, at least of about 20% of trehalose, d.s.b., exerted a desired effective reducing inhibitory activity for active-oxygen eliminating activity.

[4] = trehalose 0%, stored 80° C. 5 days
[5] = trehalose 45%, stored 80° C. 5 days
[6] = trehalose 45%, stored 25° C. 20 hours
[7] = 0.1% trehalose added to carrot (content 1.0% d.s.b.)
[8] = 0.5% trehalose added to carrot (content 4.9% d.s.b.)
[9] = 1.0% trehalose added to carrot (content 9.4% d.s.b.)
[10] = 2.5% trehalose added to carrot (content 20.7% d.s.b.)
[11] = 5.0% trehalose added to carrot (content 34.2% d.s.b.)
[12] = 10.0% trehalose added to carrot (content 51.1% d.s.b.)
[13] = 20.0% trehalose added to carrot (content 67.6% d.s.b.)

O=C(O)c1cc(O)c(O)c(O)c1 [Gallic acid, gallic acid]
Activity (unit/mg antioxidant) Before storage [1]: 570 unit/mg antioxidant
Activity (unit/mg antioxidant) After storage [1, 4]: 390 unit/mg antioxidant
Residual activity (%) [1, 5]: 82%
Activity (unit/mg antioxidant) After storage [1, 5]: 470 unit/mg antioxidant

Superoxide dismutase
Activity (unit/mg antioxidant) Before storage [1]: 11,000 unit/mg antioxidant
Activity (unit/mg antioxidant) After storage ([1]; trehalose 0%, stored 60° C. 17 hours): 4,600 unit/mg antioxidant
Activity (unit/mg antioxidant) After storage ([1]; trehalose 45%, stored 60° C. 17 hours): 9,400 unit/mg antioxidant

catechin
Activity (unit/mg antioxidant) Before storage [1]: 380 unit/mg antioxidant
Activity (unit/mg antioxidant) After storage ([1]; trehalose 0%, stored 25° C. 20 hours): 2.2 unit/mg antioxidant
Residual activity (%) [1, 6]: 82%
Activity (unit/mg antioxidant) After storage [1, 6]: 310 unit/mg antioxidant

α-glucosyl hesperidin
Activity (unit/mg antioxidant) Before storage [1]: 3.6 unit/mg antioxidant
Activity (unit/mg antioxidant) After storage [1, 4]: 1.0 unit/mg antioxidant
Residual activity (%) [1, 5]: 67%
Activity (unit/mg antioxidant) After storage [1, 5]: 2.4 unit/mg antioxidant

α-glucosyl rutin
Activity (unit/mg antioxidant) After storage [1, 4]: 18 unit/mg antioxidant
Activity (unit/mg antioxidant) After storage [1, 5]: 22 unit/mg antioxidant

OC[C@H]1O[C@H](O[C@H]2O[C@H](CO)[C@@H](O)[C@H](O)[C@H]2O)[C@H](O)[C@@H](O)[C@@H]1O [Trehalose, α,α-trehalose]
reduction inhibitory activity for active-oxygen eliminating activity (in words) [2]: strong effect
Activity (unit/g) After storage [3, 7]: 400 unit/g
Percentage of residual activity (%) [3, 7]: 43%
Activity (unit/g) After storage [3, 8]: 460 unit/g
Percentage of residual activity (%) [3, 8]: 61%
Activity (unit/g) After storage [3, 9]: 480 unit/g
Percentage of residual activity (%) [3, 9]: 56%
Activity (unit/g) After storage [3, 10]: 460 unit/g
Activity (unit/g) After storage [3, 11]: 370 unit/g
Percentage of residual activity (%) [3, 11]: 62%
Activity (unit/g) After storage [3, 12]: 330 unit/g
Percentage of residual activity (%) [3, 12]: 83%
Activity (unit/g) After storage [3, 13]: 240 unit/g
Percentage of residual activity (%) [3, 13]: 63%
Activity (unit/g) Before storage [3, 7]: 930 unit/g
Activity (unit/g) Before storage [3, 8]: 750 unit/g
Activity (unit/g) Before storage [3, 9]: 860 unit/g
Activity (unit/g) Before storage [3, 10]: 700 unit/g
Activity (unit/g) Before storage [3, 11]: 600 unit/g
Activity (unit/g) Before storage [3, 12]: 400 unit/g
Activity (unit/g) Before storage [3, 13]: 380 unit/g
